Assay results published in patent publication US9458173B2, “Amides of 2-amino-4-arylthiazole compounds and their salts” (GLENMARK PHARMACEUTICALS S.A., priority 2012, dated 2016).
Converted amounts (≈) assume the structure as drawn. Where two headings read alike, the source gives them in different places.

Columns and labels:
Type in all cases: physicochemical
[1] = Hygroscopicity study, moisture content by Karl Fischer method; details: for moisture content, initial value: before exposure to humidity; for moisture content increase: 25° C., 48 hrs
Method: Hygroscopicity study was performed under the following conditions: The material was exposed to relative humidity (for example 60%, 80%, 90%) at 25° C. condition. The material was thinly spread in dried and pre-weighed Petri plate. The plate was exposed to the relative humidity conditions at 25° C. The Petri plate was withdrawn at regular intervals and weighed. Withdrawn samples were tested for description and moisture content by Karl Fischer method.

[2] = Solubility studies, shake flask method with HPLC quantification; details: 37° C., 200 rpm, about 15 minutes; for solubility: thermodynamic from solid, read-out: Solubility (Conc.)
Method: • Shake flask method was used to determine the solubility of compound in various bio-relevant media of different pH and quantification is done using HPLC method. II. Experimental:
Following bio-relevant media and water were selected to study the solubility behaviour. • i. FaSSIF (Fasted state simulated intestinal fluid) of pH 6.5 • ii. FeSSIF (Fed state simulated intestinal fluid) of pH 5.0 • iii. Water.
Procedure: Test substance (1 mg) was taken in a test tube and medium [FaSSIF (pH 6.5) or FeSSIF (pH 5.0) or water] was added in the increment of 1 ml with shaking. After completion of addition of 10 ml of media, test tubes containing sample solution were put on a mechanical shaker set at 37° C. and 200 rpm for shaking up to about 15 minutes. After shaking, the content of each flask, it was filtered through […] filter. The filtered solution was analysed using HPLC for quantification. A sample solution of 1 mg in 10 ml of DMSO was used as reference standard for quantifying dissolved test substance in each media. The solubility in each media is expressed as μg/ml (Table-10).

[3] = Dissolution studies in suspension form; details: suspension: 10 mg active, Kollidon VA 64 40 mg, SLS 20 mg, purified water; batches 1A, 2A, 3A
Method: Suspension of compound of formula (II) and its salts with same composition was prepared using conventional homogenization technique. The % drug release was determined by comparing with 10 mg equivalent suspension (after sonication).

[4] = Stability studies of salts under storage, degradation products by HPLC
From the text: The salts of compound of formula II were stored under conditions as shown in Table 11 and a total amount of degradation products (related substances) and single maximum impurity formed during storage was estimated according to following protocol:
Apparatus: A High Performance Liquid Chromatograph equipped with quaternary gradient pumps, variable wavelength UV detector attached with data recorder and Integrator software or equivalent.
Column: Phenomenex Prodigy, 250 mm×4.6 mm, 5.0 or equivalent
Mobile phase: A: Buffer B: Acetonitrile (for sodium salt), acetonitrile:methanol (6:4) for potassium salt
Buffer: 0.1% Formic acid in water
Detection wavelength: UV 265 nm
Column temperature: 40° C.
10 mg of compound was weighed and transferred it into a 20 mL volumetric flask. Dimethylsulfoxide was added and it was sonicated to dissolve. The diluent was added to make up the solution to the mark of the flask.
The equal volumes of blank (diluent) and test solution were separately injected into the liquid chromatograph. The responses were recorded eliminating the peaks due to blank and the chromatographic purity by area was calculated by normalization method.
The salts of the compound of formula II were stored under conditions as shown in below table and a total amount of degradation products (related substances) as well as single maximum impurity formed during storage was estimated by HPLC. The material was packed in inner clear polythene bag under nitrogen lined with black polythene bag, covered with triple laminated aluminium bag placed in HDPE drum and subjected to the conditions mentioned in the table 11.

[5] = storage condition 1: 25 ± 2° C., 60 ± 5% RH, 0 months
[6] = storage condition 1: 25 ± 2° C., 60 ± 5% RH, 1 month
[7] = storage condition 1: 25 ± 2° C., 60 ± 5% RH, 2 months
[8] = storage condition 1: 25 ± 2° C., 60 ± 5% RH, 3 months
[9] = storage condition 1: 25 ± 2° C., 60 ± 5% RH, 6 months
[10] = storage condition 1: 25 ± 2° C., 60 ± 5% RH, 9 months
[11] = storage condition 2: 30 ± 2° C., 65 ± 5% RH, 0 months
[12] = storage condition 2: 30 ± 2° C., 65 ± 5% RH, 6 months
[13] = storage condition 3: 40 ± 2° C., 75 ± 5% RH, 0 months
[14] = storage condition 3: 40 ± 2° C., 75 ± 5% RH, 1 month
[15] = storage condition 3: 40 ± 2° C., 75 ± 5% RH, 2 months
[16] = storage condition 3: 40 ± 2° C., 75 ± 5% RH, 3 months
[17] = storage condition 3: 40 ± 2° C., 75 ± 5% RH, 6 months
[18] = storage condition 2: 30 ± 2° C., 65 ± 5% RH, 1 month
[19] = storage condition 2: 30 ± 2° C., 65 ± 5% RH, 2 months
[20] = storage condition 2: 30 ± 2° C., 65 ± 5% RH, 3 months

% drug release after 15 minutes [3] [%] | Solubility (Conc.) ([2]; FaSSIF (pH 6.5)) [µg/mL] | Solubility (Conc.) ([2]; FeSSIF (pH 5.0)) [µg/mL] | Solubility (Conc.) ([2]; Water) [µg/mL] | Related substances [4, 5] [%] | single max. impurity [4, 5] [%] | Related substances [4, 6] [%] | single max. impurity [4, 6] [%] | Related substances [4, 7] [%] | single max. impurity [4, 7] [%] | Related substances [4, 8] [%] | single max. impurity [4, 8] [%] | Related substances [4, 9] [%] | single max. impurity [4, 9] [%] | Related substances [4, 10] [%] | single max. impurity [4, 10] [%] | Related substances [4, 11] [%] | single max. impurity [4, 11] [%] | Related substances [4, 12] [%] | single max. impurity [4, 12] [%] | SMILES | also measured
 |  |  |  |  |  |  |  |  |  |  |  |  |  |  |  |  |  |  |  | Cn1c(=O)c2c(CC(=O)Nc3nc(-c4ccc(F)c(C(F)(F)F)c4F)cs3)csc2n(C)c1=O.[K] [Potassium salt of N-{4-[2,4-difluoro-3-(trifluoromethyl)phenyl]-1,3-thiazol-2-yl}-2-(1,3-dimethyl-2,4-dioxo-1,2,3,4-tetrahydrothieno[2,3-d]pyrimidin-5-yl)acetamide in crystalline form] | moisture content after gradual increase ([1]; 48 hrs at 25° C./60% RH): about 3.5%; moisture content after gradual increase ([1]; 48 hrs at 25° C./80% RH): about 6.6%; moisture content after gradual increase ([1]; 48 hrs at 25° C./90% RH): about 16.0%; moisture content, initial value [1]: about 0.80%
0.40 |  |  |  |  |  |  |  |  |  |  |  |  |  |  |  |  |  |  |  | Cn1c(=O)c2c(CC(=O)Nc3nc(-c4ccc(F)c(C(F)(F)F)c4F)cs3)csc2n(C)c1=O [Compound (II), N-{4-[2,4-difluoro-3-(trifluoromethyl)phenyl]-1,3-thiazol-2-yl}-2-(1,3-dimethyl-2,4-dioxo-1,2,3,4-tetrahydrothieno[2,3-d]pyrimidin-5-yl)acetamide] | solubility ([2]; FaSSIF (fasted state simulated intestinal fluid), FaSSIF (pH 6.5)): 0.16 µg/mL (≈ 0.31 µM); solubility ([2]; FeSSIF (fed state simulated intestinal fluid), FeSSIF (pH 5.0)): 0.06 µg/mL (≈ 0.116 µM); solubility ([2]; Water): 0.1 µg/mL (≈ 0.194 µM)
6.3 | 5.91 | 5.53 | 0.49 | 0.44 | 0.26 | 0.45 | 0.27 | 0.31 | 0.19 | 0.43 | 0.26 | 0.35 | 0.21 | 0.35 | 0.21 | 0.44 | 0.26 | 0.51 | 0.31 | Cn1c(=O)c2c(CC(=O)Nc3nc(-c4ccc(F)c(C(F)(F)F)c4F)cs3)csc2n(C)c1=O.[K] [Potassium salt of compound (II), potassium salt of N-{4-[2,4-difluoro-3-(trifluoromethyl)phenyl]-1,3-thiazol-2-yl}-2-(1,3-dimethyl-2,4-dioxo-1,2,3,4-tetrahydrothieno[2,3-d]pyrimidin-5-yl)acetamide] | moisture content after gradual increase ([1]; 48 hrs at 25° C./60% RH, listed as potassium salt of compound of formula (II)): 3.5%; moisture content after gradual increase ([1]; 48 hrs at 25° C./80% RH, listed as potassium salt of compound of formula (II)): 6.6%; moisture content after gradual increase ([1]; 48 hrs at 25° C./90% RH, listed as potassium salt of compound of formula (II)): 16.0%; moisture content, initial value ([1]; listed as potassium salt of compound of formula (II)): 0.80%; moisture content increase ([1]; relative humidity of 60%): ≤ 2.7%; moisture content increase ([1]; relative humidity of 80%): ≤ 5.8%; moisture content increase ([1]; relative humidity of 90%): ≤ 15.2%; Related substances [4, 13]: 0.44%; single max. impurity [4, 13]: 0.26%; Related substances [4, 14]: 0.44%; single max. impurity [4, 14]: 0.27%; Related substances [4, 15]: 0.32%; single max. impurity [4, 15]: 0.20%; Related substances [4, 16]: 0.46%; single max. impurity [4, 16]: 0.28%; Related substances [4, 17]: 0.52%; single max. impurity [4, 17]: 0.32%
1.2 | 1.07 | 0.24 | 0.13 | 0.22 | 0.05 | 0.28 | 0.06 | 0.36 | 0.10 | 0.38 | 0.11 | 0.51 | 0.23 | 0.75 | 0.39 | 0.22 | 0.05 | 0.71 | 0.35 | Cn1c(=O)c2c(CC(=O)[N-]c3nc(-c4ccc(F)c(C(F)(F)F)c4F)cs3)csc2n(C)c1=O.[Na+] [Sodium salt of compound (II)] | Related substances [4, 18]: 0.30%; single max. impurity [4, 18]: 0.05%; Related substances [4, 19]: 0.40%; single max. impurity [4, 19]: 0.14%; Related substances [4, 20]: 0.47%; single max. impurity [4, 20]: 0.18%; Related substances [4, 13]: 0.22%; single max. impurity [4, 13]: 0.05%; Related substances [4, 14]: 0.54%; single max. impurity [4, 14]: 0.22%; Related substances [4, 15]: 0.70%; single max. impurity [4, 15]: 0.36%; Related substances [4, 16]: 0.77%; single max. impurity [4, 16]: 0.39%; Related substances [4, 17]: 1.0%; single max. impurity [4, 17]: 0.58%
